Test: xn = mol fraction of the nth substance listed
Details: 100 kPa, Liquid; for viscosity: Concentric cylinders viscometry; for mass density: Vibrating tube method

CCCC[n+]1ccn(C)c1.O=S(=O)([N-]S(=O)(=O)C(F)(F)F)C(F)(F)F + CCCCn1cc[n+](C)c1.F[B-](F)(F)F
Details | mass density, x1 = 0.25 [kg/m3] | mass density, x1 = 0.498 [kg/m3] | mass density, x1 = 0.751 [kg/m3] | mass density, x1 = 1 [kg/m3] | viscosity, x1 = 0.25 [mPa·s] | viscosity, x1 = 0.498 [mPa·s] | viscosity, x1 = 0.751 [mPa·s] | viscosity, x1 = 1 [mPa·s]
283.15 K | 1291.2 | 1355.8 | 1409.1 | 1451.8 | 200.83 | 158.06 | 127.96 | 106.77
288.15 K | 1287.1 | 1351.4 | 1404.4 | 1446.9 | 149.79 | 119.67 | 97.87 | 82.16
293.15 K | 1283.1 | 1347.1 | 1399.8 | 1442.1 | 114.12 | 92.47 | 76.33 | 64.53
298.15 K | 1279.1 | 1342.8 | 1395.1 | 1437.2 | 88.56 | 72.77 | 60.64 | 51.6
303.15 K | 1275.1 | 1338.5 | 1390.5 | 1432.4 | 69.91 | 58.24 | 48.97 | 41.93
308.15 K | 1271.2 | 1334.2 | 1386 | 1427.6 | 56.12 | 47.31 | 40.14 | 34.59
313.15 K | 1267.3 | 1329.9 | 1381.5 | 1422.8 | 45.7 | 38.96 | 33.35 | 28.91
318.15 K | 1263.4 | 1325.7 | 1376.9 | 1418.1 | 37.72 | 32.48 | 28.05 | 24.46
323.15 K | 1259.5 | 1321.4 | 1372.4 | 1413.4 | 31.52 | 27.36 | 23.85 | 20.91
328.15 K | 1255.6 | 1317.2 | 1368 | 1408.7 | 26.63 | 23.29 | 20.48 | 18.05
333.15 K | 1251.8 | 1313.1 | 1363.5 | 1404 | 22.71 | 20.02 | 17.75 | 15.72
338.15 K | 1248 | 1308.9 | 1359.1 | 1399.3 | 19.58 | 17.36 | 15.51 | 13.8
343.15 K | 1244.2 | 1304.8 | 1354.8 | 1394.7 | 17.02 | 15.19 | 13.66 | 12.2
348.15 K | 1240.4 | 1300.7 | 1350.4 | 1390.1 | 14.91 | 13.38 | 12.11 | 10.86
353.15 K | 1236.7 | 1296.6 | 1346 | 1385.5 | 13.15 | 11.84 | 10.81 | 9.72
358.15 K | 1233 | 1292.6 | 1341.7 | 1381 | 11.66 | 10.55 | 9.688 | 8.754
363.15 K | 1229.3 | 1288.6 | 1337.5 | 1376.4 | 10.42 | 9.467 | 8.733 | 7.926

CCCCn1cc[n+](C)c1.COP(=O)([O-])OC [1-butyl-3-methyl-1H-imidazolium dimethylphosphate] + CCCC[n+]1ccn(C)c1.O=S(=O)([N-]S(=O)(=O)C(F)(F)F)C(F)(F)F
Details | mass density, x2 = 0 [kg/m3] | mass density, x2 = 0.25 [kg/m3] | mass density, x2 = 0.501 [kg/m3] | mass density, x2 = 0.747 [kg/m3] | viscosity, x2 = 0 [mPa·s] | viscosity, x2 = 0.25 [mPa·s] | viscosity, x2 = 0.501 [mPa·s] | viscosity, x2 = 0.747 [mPa·s]
283.15 K | 1168.4 | 1251 | 1325.1 | 1390.6 | 2315.6 | 1433.7 | 630.61 | 251.51
288.15 K | 1164.9 | 1247 | 1320.6 | 1386 | 1454.6 | 930.25 | 433.3 | 183.6
293.15 K | 1161.4 | 1243.1 | 1316.2 | 1381.5 | 943.97 | 618.01 | 301.49 | 137.3
298.15 K | 1157.9 | 1239.1 | 1312 | 1377 | 641.71 | 432.55 | 222.26 | 104.86
303.15 K | 1154.3 | 1235.2 | 1307.8 | 1372.5 | 446.92 | 307.85 | 165.15 | 81.71
308.15 K | 1150.9 | 1231.4 | 1303.7 | 1368.1 | 319.33 | 224.53 | 125.35 | 64.81
313.15 K | 1147.6 | 1227.7 | 1299.7 | 1363.6 | 232.1 | 166.25 | 96.27 | 52.46
318.15 K | 1144.3 | 1224.1 | 1295.6 | 1359.2 | 174.7 | 127.53 | 76.39 | 42.72
323.15 K | 1141 | 1220.4 | 1291.6 | 1354.8 | 133.37 | 98.92 | 61.14 | 35.4
328.15 K | 1137.8 | 1216.8 | 1287.6 | 1350.4 | 103.62 | 78.04 | 49.65 | 29.69
333.15 K | 1134.6 | 1213.2 | 1283.5 | 1346 | 81.97 | 62.7 | 41.07 | 25.42
338.15 K | 1131.4 | 1209.7 | 1279.5 | 1341.7 | 65.62 | 50.83 | 34.05 | 21.56
343.15 K | 1128.3 | 1206.1 | 1275.6 | 1337.4 | 53.39 | 41.87 | 28.69 | 18.63
348.15 K | 1125.1 | 1202.5 | 1271.6 | 1333.1 | 44.01 | 34.9 | 24.42 | 16.23
353.15 K | 1122 | 1199 | 1267.7 | 1328.8 | 37.08 | 29.8 | 21.36 | 14.57
358.15 K | 1118.9 | 1195.5 | 1263.7 | 1324.6 | 30.94 | 25.03 | 18.18 | 12.61
363.15 K | 1115.7 | 1192 | 1259.9 | 1320.4 | 26.33 | 21.5 | 15.88 | 11.22

CC(=O)[O-].CCCCn1cc[n+](C)c1 [1-butyl-3-methylimidazolium acetate] + CCCC[n+]1ccn(C)c1.O=S(=O)([N-]S(=O)(=O)C(F)(F)F)C(F)(F)F
Details | mass density, x2 = 0 [kg/m3] | mass density, x2 = 0.25 [kg/m3] | mass density, x2 = 0.498 [kg/m3] | mass density, x2 = 0.749 [kg/m3] | viscosity, x2 = 0 [mPa·s] | viscosity, x2 = 0.25 [mPa·s] | viscosity, x2 = 0.498 [mPa·s] | viscosity, x2 = 0.749 [mPa·s]
283.15 K | 1062.7 | 1193.2 | 1296.5 | 1381.4 | 1013.4 | 577.38 | 310.72 | 175.1
288.15 K | 1059.4 | 1189.4 | 1292.2 | 1376.8 | 645.6 | 385.58 | 220.24 | 129.87
293.15 K | 1056 | 1185.6 | 1288 | 1372.3 | 421.35 | 265.43 | 159.18 | 101.85
298.15 K | 1052.8 | 1181.9 | 1283.8 | 1367.8 | 292.57 | 189.58 | 119.72 | 76.32
303.15 K | 1049.7 | 1178.3 | 1279.7 | 1363.3 | 206.68 | 138.72 | 91.38 | 60.27
308.15 K | 1046.6 | 1174.7 | 1275.7 | 1358.8 | 150.08 | 104 | 71.14 | 48.44
313.15 K | 1043.5 | 1171.1 | 1271.6 | 1354.3 | 110.79 | 79.57 | 56.47 | 40.34
318.15 K | 1040.5 | 1167.5 | 1267.5 | 1349.9 | 85.03 | 62.28 | 45.44 | 32.7
323.15 K | 1037.5 | 1163.9 | 1263.5 | 1345.4 | 66.07 | 49.57 | 37.16 | 27.36
328.15 K | 1034.5 | 1160.3 | 1259.4 | 1341 | 52.29 | 40.09 | 30.8 | 23.18
333.15 K | 1031.5 | 1156.8 | 1255.4 | 1336.6 | 42.29 | 33.14 | 26.09 | 20.11
338.15 K | 1028.5 | 1153.2 | 1251.4 | 1332.3 | 34.38 | 27.38 | 21.93 | 17.14
343.15 K | 1025.6 | 1149.7 | 1247.5 | 1327.9 | 28.48 | 23.05 | 18.79 | 14.96
348.15 K | 1022.6 | 1146.1 | 1243.5 | 1323.6 | 23.88 | 19.63 | 16.25 | 13.13
353.15 K | 1019.7 | 1142.6 | 1239.6 | 1319.4 | 20.63 | 17.21 | 14.49 | 11.89
358.15 K | 1016.7 | 1139.1 | 1235.7 | 1315.1 | 17.35 | 14.64 | 12.45 | 10.35
363.15 K | 1013.9 | 1135.6 | 1231.8 | 1310.9 | 15 | 12.81 | 11.02 | 9.272

— the NIST ThermoML archive (doi:10.1021/acs.jced.6b00178)
